Measurements from patent US20050266105A1, “Compositions comprising natural agents for the treatment of HIV-associated opportunistic infections and complications and methods for preparing and using compositions comprising natural agents” (priority 2004, published 2005).
Values after ≈ are worked out from the molar mass of the structure shown. Read-outs that look alike come from different tables or passages of the source.

Legend:
HIV-1RF = test: HIV-1 cytoprotection assay; format: cell-based
Method: ICBG plant samples were tested using an HIV-1 cytoprotection assay. This assay is based on the premise that HIV-1RF is cytopathic and kills CEM-SS cells as it replicates in the culture. Compounds that inhibit HIV-1 replication are therefore able to reduce the amount of viral cytopathic effect that occurs in the culture. As a result, compound activity is measured by determining the amount of cell viability remaining in the cultures following the six day incubation period. The % reduction in viral cytopathic effect is a direct measure of compound activity. The greater the % reduction in viral cytopathic effect, the greater the antiviral activity of the compound. […] Macroscopic observation of the cells in each well of the microtiter plate confirmed the cytotoxicity results obtained following staining of the cells with the MTS metabolic dye.

CEM-SS cells = test: Compound cytotoxicity (cell viability in the absence of virus, MTS); format: cell-based; conditions: read-out: TC50 (the source's name)
Method: Similarly, compound cytotoxicity is measured as the % reduction in cell viability resulting from incubation of the compound with the cells (in the absence of virus). The greater the reduction in cell viability, the greater the cytotoxicity of the compound. […] Macroscopic observation of the cells in each well of the microtiter plate confirmed the cytotoxicity results obtained following staining of the cells with the MTS metabolic dye.

MRSA = conditions: cited from earlier work

Row | IC50 (HIV-1RF; HIV-1RF in CEM-SS cells, six day incubation) [nM] | Compound | Antiviral activity (comments) (HIV-1RF; HIV-1RF in CEM-SS cells, at concentrations tested) | AI (Antiviral Index) (HIV-1RF; TC50 / IC50) | CC50 (CEM-SS cells) [nM] | MIC (MRSA; MRSA strain 1199-B) [µg/mL] | MIC (MRSA; MRSA strain XU212) [µg/mL]
1 | < 2 | Cc1cn([C@H]2C[C@H](N=[N+]=[N-])[C@@H](CO)O2)c(=O)[nH]c1=O [AZT] | expected level of antiviral activity | >320 | > 500 | – | –
2 | – | CC[C@H]1OC(=O)[C@H](C)[C@@H](O[C@H]2C[C@@](C)(OC)[C@@H](O)[C@H](C)O2)[C@H](C)[C@@H](O[C@@H]2O[C@H](C)C[C@H](N(C)C)[C@H]2O)[C@](C)(O)C[C@@H](C)C(=O)[C@H](C)[C@@H](O)[C@]1(C)O [Erythromycin] | – | – | – | 2 (≈ 2.73 µM) | 4096 (≈ 5580 µM)
3 | – | CCn1cc(C(=O)O)c(=O)c2cc(F)c(N3CCNCC3)cc21 [Norfloxacin] | – | – | – | 64 (≈ 200 µM) | 8 (≈ 25.1 µM)
